Results on 9 compounds are retold here after publication PMC7254530 (ACS Omega, 2020).

The IC50 is the midpoint of a concentration-inhibition curve. The low end stands for greater potency, the high end for weaker potency. The Kd is the concentration at which binding is half-saturated. Read a low Kd as tighter binding.

The subject of assay [1] is E. coli ZJ487 (NDM-1/MCR-1). Description: microbe, parasite or virus in culture. The format is cell-based, Escherichia coli. As to conditions: for MIC: Escherichia coli; for MIC of Mep combination: Mep with the named analogue at 32 μg/mL; for FIC Index: analogue + Mep; for MIC of analogues of OA combination: analogue with Mep.
Assay [2] has as its system E. coli ZJ478. The format is in vivo, C57BL/6J male mice. The settings on record: for survival rate: 120 h.
Assay [3] concerns the target OXA-1 (Escherichia coli, UniProt P13661). Description: biochemical. Details: species or system E. coli. The settings on record: IC50, purified OXA-1.
The target of assay [4] is NDM-1 F240A (Klebsiella pneumoniae, UniProt C7C422, F240A). Description: biochemical. It counts as binding.
In assay [5] the test system is A549 cells. It counts as cell-based, human. As to conditions: 6 h.
The test system of assay [6] is AmpC β-lactamase, E. coli BL21 (pET21a). The format is biochemical. The settings on record: co-culture or co-incubation with OA.
Assay [7] relates to S. aureus USA300. The format is in vivo, C57BL/6J male mice. As to conditions: for survival rate: 96 h; for activity of β-lactamases in bronchoalveolar lavage fluid: 36 h.
The subject of assay [8] is E. coli BL21 (pET28a-SP-NDM-1). It counts as cell-based, Escherichia coli. The settings on record: OA 32 μg/mL with Mep; postinoculation.
Assay [9] concerns E. coli ZJ487. The format is cell-based, Escherichia coli. The settings on record: OA 32 μg/mL with Mep; postinoculation.
Assay [10] relates to NDM-1-Asp199Ala, NDM-1-Thr201Ala, and NDM-1-Phe240Ala. It counts as biochemical.
The test system of assay [11] is MH-S cells. It counts as cell-based, mouse. The settings on record: 6 h.
The target of assay [12] is TEM-1 (Escherichia coli, UniProt P62593). Description: biochemical. The settings on record: IC50, purified TEM-1.
Assay [13] concerns S. aureus USA300. It counts as cell-based, Staphylococcus aureus. The settings on record: OA combined with penicillin G.
For assay [14], the target named is NDM-1 (Escherichia coli, UniProt E5KIY2). The format is biochemical, E. coli. As to conditions: OA analogues, Figure 3G.
In assay [15] the target is suilysin (SLY) (Streptococcus suis, UniProt Q55996). Description: biochemical.
The mark [16] stands for this setting: OA combined with penicillin G, 36 h postinfection.
Setting [17] is: monotherapy 50 mg/kg subcutaneous every 8 h.
[18] abbreviates: named compound combined with Mep 5 mg/kg.
[19] abbreviates: read-out: MIC of analogues of OA alone, ZJ487, Table 1, median (range).

Where two headings read alike, the source gives them in different places.

Chain of OXA-1 (P13661 26-276): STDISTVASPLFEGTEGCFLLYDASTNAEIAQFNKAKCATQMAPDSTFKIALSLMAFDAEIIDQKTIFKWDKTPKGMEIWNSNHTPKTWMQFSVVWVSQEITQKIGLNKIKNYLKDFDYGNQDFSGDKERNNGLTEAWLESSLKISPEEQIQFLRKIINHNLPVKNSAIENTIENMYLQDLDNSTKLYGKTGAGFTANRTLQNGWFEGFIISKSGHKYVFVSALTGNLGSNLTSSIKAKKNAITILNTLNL
Chain of TEM-1 (P62593 24-286 limits assumed): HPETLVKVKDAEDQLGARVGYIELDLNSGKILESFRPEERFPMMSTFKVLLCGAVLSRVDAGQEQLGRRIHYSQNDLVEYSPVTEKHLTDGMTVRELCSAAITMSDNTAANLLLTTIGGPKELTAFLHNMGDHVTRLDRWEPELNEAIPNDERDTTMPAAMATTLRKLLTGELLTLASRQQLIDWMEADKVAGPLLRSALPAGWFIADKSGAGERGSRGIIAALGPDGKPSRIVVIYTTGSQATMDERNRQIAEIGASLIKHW

As for `C[C@@H](O)[C@H]1C(=O)N2C(C(=O)O)=C(S[C@@H]3CN[C@H](C(=O)N(C)C)C3)[C@H](C)[C@H]12` [Meropenem, meropenem, reference compound], the MIC in [1] (read-out: MIC of Mep alone, ZJ487, Table 1, median (range)) was found to be 32 µg/mL. Besides, the “MIC of Mep alone” value in assay [1] (ZJ487, Table 1, median (range), listed as Mep) is 16(16–32) μg/mL. Moreover, in assay [2] (Mep 5 mg/kg alone, subcutaneous every 8 h), the survival rate came out at 44.4%.
With `CC1(C)CC[C@]2(C(=O)O)CC[C@]3(C)C(=CC[C@@H]4[C@@]5(C)CC[C@H](O)C(C)(C)[C@@H]5CC[C@]43C)[C@@H]2C1` [OA, oleanolic acid], the IC50 in [3] and in [12] was more than 109 µM in each case. For the same compound, binding in assay [4] was characterised by a dissociation constant (Kd) of 14.3 µM. Also, the “concentration protecting cells from hemolysin-mediated cell injury” value in assay [5] and in assay [11] was 1 to 4 µg/mL throughout. For the same compound, the “inhibitory effect on β-lactamase activity in culture supernatant” value in assay [6] is “No significant inhibitory effect”. Also, the survival rate in assay [7] (OA 50 mg/kg combined with penicillin G 50 mg/kg, subcutaneous every 8 h) is reported as 75.0%; in assay [7] (setting [17]) it was 43.8%; in assay [2] (setting [18]) it was 61.1%. For the same compound, the lung lesions result in assay [7] (OA combined with penicillin G) is given as “greatly alleviated”. Further, in [7] (setting [16]), the “IL-1β, IL-6, and TNF-α levels in bronchoalveolar lavage fluid” value is listed as “significant decreases”. In addition, the “number of bacteria in the lungs” value in assay [7] (setting [16]) is given as “significant reduction”. In addition, the “bacterial burden and inflammatory responses” value in assay [7] (OA monotherapy) was “also inhibited”. The “activity of β-lactamases in bronchoalveolar lavage fluid” value in assay [7] (monotherapy) and in assay [7] (penicillin G combined with OA) was “inhibited” in each case. The results for the “time to complete elimination” value in assay [8] and in [9] were not above 6 h and not above 3 h, respectively. For the same compound, the “inhibitory effect on activity of NDM-1 mutants” value in [10] is given as “significant inhibitory effect was not detected”. Moreover, the bactericidal effect entry in assay [13] was “significantly eliminate, but not thoroughly kill”. In addition, in assay [2] (OA combined with Mep, 36 h postinfection), the “E. coli colonization in the liver and spleen” value was “significantly inhibited”.
In turn, `CC1(C)S[C@@H]2[C@H](NC(=O)Cc3ccccc3)C(=O)N2[C@H]1C(=O)O` [Penicillin G, penicillin G, reference compound] yielded a survival rate in assay [7] (setting [17]) of 25.0%. Further, the “activity of β-lactamases in bronchoalveolar lavage fluid” value in [7] (monotherapy) is “such inhibition was not observed”.
As for `CC1(C)CC[C@]2(C(=O)O)CC[C@]3(C)C(=CC[C@@H]4[C@@]5(C)C[C@@H](O)[C@H](O)[C@@](C)(CO)[C@@H]5CC[C@]43C)[C@@H]2C1` [arjunolic acid], the MIC in assay [1] (setting [19]) is 512 µg/mL. Further, the “MIC of Mep combination” value in [1] (ZJ487, median (range)) is reported as 8(4–16) μg/mL. Further, in assay [1] (ZJ487), the “FIC Index” value stood at 0.40 ± 0.14 and the “MIC of analogues of OA combination” value is 32 μg/mL.
For the compound `C[C@H]1[C@H](C)CC[C@]2(C(=O)O)CC[C@]3(C)C(=CC[C@@H]4[C@@]5(C)C[C@@H](O)[C@H](O)C(C)(C)[C@@H]5CC[C@]43C)[C@H]12` [corosolic acid], the “inhibitory effect against NDM-1” value in assay [14] is listed as “robust inhibitory effects”. In addition, in assay [15], the half-maximal inhibitory concentration (IC50) was less than 2.12 µM. Besides, the MIC in assay [1] (setting [19]) came to 512 µg/mL. Further, the “MIC of Mep combination” value in assay [1] (ZJ487, median (range)) is recorded as 2(2–4) μg/mL. For the same compound, in assay [1] (ZJ487), the “FIC Index” value came to 0.17 ± 0.04 and the “MIC of analogues of OA combination” value is on record as 32 μg/mL. In addition, the survival rate in assay [2] (setting [18]) is listed as 77.8%.
Consider `CC1(C)[C@@H](O[C@H]2O[C@H](C(=O)O)[C@@H](O)[C@H](O)[C@H]2O[C@@H]2O[C@H](C(=O)O)[C@@H](O)[C@H](O)[C@H]2O)CC[C@]2(C)[C@H]3C(=O)C=C4[C@@H]5C[C@@](C)(C(=O)O)CC[C@]5(C)CC[C@@]4(C)[C@]3(C)CC[C@@H]12` [glycyrrhizic acid], for which the MIC in assay [1] (setting [19]) was 512 µg/mL. Moreover, the “MIC of Mep combination” value in assay [1] (ZJ487, median (range)) is reported as 8(4–16) μg/mL. Moreover, in assay [1] (ZJ487), the “FIC Index” value is recorded as 0.40 ± 0.14 and the “MIC of analogues of OA combination” value stood at 32 μg/mL.
In the same order, the values of `CC1(C)CC[C@]2(C(=O)O)CC[C@]3(C)C(=CC[C@@H]4[C@@]5(C)C[C@@H](O)[C@H](O)C(C)(C)[C@@H]5CC[C@]43C)[C@@H]2C1` [maslinic acid] are 512 µg/mL, 4(2–4) μg/mL, 0.38 ± 0.00 and 32 μg/mL.
Take `C[C@H]1[C@H](C)CC[C@]2(C(=O)O)CC[C@]3(C)C(=CC[C@@H]4[C@@]5(C)CC[C@H](O)C(C)(C)[C@@H]5CC[C@]43C)[C@H]12` [ursolic acid]: the “inhibitory effect against NDM-1” value in assay [14] was “robust inhibitory effects”. In addition, the MIC in assay [1] (setting [19]) is 512 µg/mL. The “MIC of Mep combination” value in [1] (ZJ487, median (range)) was 2(2–4) μg/mL. Further, in [1] (ZJ487), the “FIC Index” value is given as 0.17 ± 0.04 and the “MIC of analogues of OA combination” value came to 32 μg/mL.
α-boswellic acid: in assay [1] (ZJ487, median (range)), the “MIC of Mep combination” value is reported as 16(16) μg/mL. In addition, in assay [1] (ZJ487, Table 1, median (range)), the “MIC of analogues of OA alone” value was 512(≥512) μg/mL. In addition, in assay [1] (ZJ487), the “FIC Index” value was 0.73 ± 0.29 and the “MIC of analogues of OA combination” value is on record as 32 μg/mL.
